{
  "source": "patent US6457474B1",
  "about": "“Method of treating chest pain” (priority 1997, dated 2002)",
  "origin": "cited, not measured here",
  "key": {"[1]": {"conditions": "after the tablet has dissolved under the tongue"}},
  "data": [
    {"smiles": "O=[N+]([O-])OCC(CO[N+](=O)[O-])O[N+](=O)[O-]", "note": "[nitroglycerin]", "values": [
      {"measurement": "systemic bioavailability", "setting": "after oral administration", "result": "rather low"},
      {"measurement": "plasma levels", "setting": "high oral doses", "result": "erratic"},
      {"measurement": "time for the angina attack to go away", "setting": "[1]", "result": "approximately five"}
    ]}
  ]
}
